With O=C(O)COc1ccc(Cl)cc1 the solubility (mole fraction) (in 1,4-dioxane, 288.15 K) was 0.113, the solubility (mole fraction) (in 1,4-dioxane, 293.15 K) was 0.124 and the solubility (mole fraction) (in 1,4-dioxane, 298.15 K) was 0.135. For the same compound, the solubility (mole fraction) (in 1,4-dioxane, 303.15 K) was 0.146, the solubility (mole fraction) (in 1,4-dioxane, 308.15 K) was 0.16 and the solubility (mole fraction) (in 1,4-dioxane, 313.15 K) was 0.176. It also gave a solubility (mole fraction) (in 1,4-dioxane, 318.15 K) of 0.194, a solubility (mole fraction) (in 1,4-dioxane, 323.15 K) of 0.212 and a solubility (mole fraction) (in acetonitrile, 283.15 K) of 0.00781. It also gave a solubility (mole fraction) (in acetonitrile, 288.15 K) of 0.00938, a solubility (mole fraction) (in acetonitrile, 293.15 K) of 0.0114 and a solubility (mole fraction) (in acetonitrile, 298.15 K) of 0.0134. For the same compound, the solubility (mole fraction) (in acetonitrile, 303.15 K) was 0.0159, the solubility (mole fraction) (in acetonitrile, 308.15 K) was 0.0198 and the solubility (mole fraction) (in acetonitrile, 313.15 K) was 0.0241. For the same compound, the solubility (mole fraction) (in acetonitrile, 318.15 K) was 0.0298, the solubility (mole fraction) (in acetonitrile, 323.15 K) was 0.0359 and the solubility (mole fraction) (in ethanol, 283.15 K) was 0.0308. The solubility (mole fraction) (in ethanol, 288.15 K) was 0.0347, the solubility (mole fraction) (in ethanol, 293.15 K) was 0.0406 and the solubility (mole fraction) (in ethanol, 298.15 K) was 0.0472. It also gave a solubility (mole fraction) (in ethanol, 303.15 K) of 0.0545, a solubility (mole fraction) (in ethanol, 308.15 K) of 0.0643 and a solubility (mole fraction) (in ethanol, 313.15 K) of 0.0796. For the same compound, the solubility (mole fraction) (in ethanol, 318.15 K) was 0.0962, the solubility (mole fraction) (in ethanol, 323.15 K) was 0.114 and the solubility (mole fraction) (in ethyl acetate, 283.15 K) was 0.0266. For the same compound, the solubility (mole fraction) (in ethyl acetate, 288.15 K) was 0.0303, the solubility (mole fraction) (in ethyl acetate, 293.15 K) was 0.036 and the solubility (mole fraction) (in ethyl acetate, 298.15 K) was 0.0413. The solubility (mole fraction) (in ethyl acetate, 303.15 K) was 0.0468, the solubility (mole fraction) (in ethyl acetate, 308.15 K) was 0.0537 and the solubility (mole fraction) (in ethyl acetate, 313.15 K) was 0.0637. The solubility (mole fraction) (in ethyl acetate, 318.15 K) was 0.0731, the solubility (mole fraction) (in ethyl acetate, 323.15 K) was 0.0827 and the solubility (mole fraction) (in ethyl formate, 283.15 K) was 0.0139. It also gave a solubility (mole fraction) (in ethyl formate, 288.15 K) of 0.0164, a solubility (mole fraction) (in ethyl formate, 293.15 K) of 0.0193 and a solubility (mole fraction) (in ethyl formate, 298.15 K) of 0.0223. It also gave a solubility (mole fraction) (in ethyl formate, 303.15 K) of 0.0254, a solubility (mole fraction) (in ethyl formate, 308.15 K) of 0.0299 and a solubility (mole fraction) (in ethyl formate, 313.15 K) of 0.036. For the same compound, the solubility (mole fraction) (in ethyl formate, 318.15 K) was 0.0423, the solubility (mole fraction) (in ethyl formate, 323.15 K) was 0.0487 and the solubility (mole fraction) (in isobutanol, 283.15 K) was 0.0146. The solubility (mole fraction) (in isobutanol, 288.15 K) was 0.0178, the solubility (mole fraction) (in isobutanol, 293.15 K) was 0.0224 and the solubility (mole fraction) (in isobutanol, 298.15 K) was 0.0286. It also gave a solubility (mole fraction) (in isobutanol, 303.15 K) of 0.0365, a solubility (mole fraction) (in isobutanol, 308.15 K) of 0.0453 and a solubility (mole fraction) (in isobutanol, 313.15 K) of 0.0558. The solubility (mole fraction) (in isobutanol, 318.15 K) was 0.0688, the solubility (mole fraction) (in isobutanol, 323.15 K) was 0.0843 and the solubility (mole fraction) (in isopropanol, 283.15 K) was 0.0214. For the same compound, the solubility (mole fraction) (in isopropanol, 288.15 K) was 0.0267, the solubility (mole fraction) (in isopropanol, 293.15 K) was 0.0324 and the solubility (mole fraction) (in isopropanol, 298.15 K) was 0.039. The solubility (mole fraction) (in isopropanol, 303.15 K) was 0.0476, the solubility (mole fraction) (in isopropanol, 308.15 K) was 0.0586 and the solubility (mole fraction) (in isopropanol, 313.15 K) was 0.0703. For the same compound, the solubility (mole fraction) (in isopropanol, 318.15 K) was 0.0844, the solubility (mole fraction) (in isopropanol, 323.15 K) was 0.0997 and the solubility (mole fraction) (in methyl acetate, 283.15 K) was 0.0285. For the same compound, the solubility (mole fraction) (in methyl acetate, 288.15 K) was 0.0325, the solubility (mole fraction) (in methyl acetate, 293.15 K) was 0.0379 and the solubility (mole fraction) (in methyl acetate, 298.15 K) was 0.0433. The solubility (mole fraction) (in methyl acetate, 303.15 K) was 0.0496, the solubility (mole fraction) (in methyl acetate, 308.15 K) was 0.0567 and the solubility (mole fraction) (in methyl acetate, 313.15 K) was 0.0659. The solubility (mole fraction) (in methyl acetate, 318.15 K) was 0.0766, the solubility (mole fraction) (in methyl acetate, 323.15 K) was 0.0882 and the solubility (mole fraction) (in n-butanol, 283.15 K) was 0.0243. The solubility (mole fraction) (in n-butanol, 288.15 K) was 0.0282, the solubility (mole fraction) (in n-butanol, 293.15 K) was 0.0343 and the solubility (mole fraction) (in n-butanol, 298.15 K) was 0.0415. It also gave a solubility (mole fraction) (in n-butanol, 303.15 K) of 0.0501, a solubility (mole fraction) (in n-butanol, 308.15 K) of 0.0604 and a solubility (mole fraction) (in n-butanol, 313.15 K) of 0.0721. For the same compound, the solubility (mole fraction) (in n-butanol, 318.15 K) was 0.0855, the solubility (mole fraction) (in n-butanol, 323.15 K) was 0.101 and the solubility (mole fraction) (in n-butyl acetate, 283.15 K) was 0.0218. The solubility (mole fraction) (in n-butyl acetate, 288.15 K) was 0.0246, the solubility (mole fraction) (in n-butyl acetate, 293.15 K) was 0.0289 and the solubility (mole fraction) (in n-butyl acetate, 298.15 K) was 0.0334. For the same compound, the solubility (mole fraction) (in n-butyl acetate, 303.15 K) was 0.0387, the solubility (mole fraction) (in n-butyl acetate, 308.15 K) was 0.0446 and the solubility (mole fraction) (in n-butyl acetate, 313.15 K) was 0.0514. For the same compound, the solubility (mole fraction) (in n-butyl acetate, 318.15 K) was 0.0593, the solubility (mole fraction) (in n-butyl acetate, 323.15 K) was 0.0682 and the solubility (mole fraction) (in n-propanol, 283.15 K) was 0.0255. It also gave a solubility (mole fraction) (in n-propanol, 288.15 K) of 0.0292, a solubility (mole fraction) (in n-propanol, 293.15 K) of 0.0348 and a solubility (mole fraction) (in n-propanol, 298.15 K) of 0.0415. For the same compound, the solubility (mole fraction) (in n-propanol, 303.15 K) was 0.0506, the solubility (mole fraction) (in n-propanol, 308.15 K) was 0.0618 and the solubility (mole fraction) (in n-propanol, 313.15 K) was 0.0748. The solubility (mole fraction) (in n-propanol, 318.15 K) was 0.089, the solubility (mole fraction) (in n-propanol, 323.15 K) was 0.11 and the solubility (mole fraction) (in n-propyl acetate, 283.15 K) was 0.0235. The solubility (mole fraction) (in n-propyl acetate, 288.15 K) was 0.0268, the solubility (mole fraction) (in n-propyl acetate, 293.15 K) was 0.0303 and the solubility (mole fraction) (in n-propyl acetate, 298.15 K) was 0.035. The solubility (mole fraction) (in n-propyl acetate, 303.15 K) was 0.0398, the solubility (mole fraction) (in n-propyl acetate, 308.15 K) was 0.0454 and the solubility (mole fraction) (in n-propyl acetate, 313.15 K) was 0.0524. For the same compound, the solubility (mole fraction) (in n-propyl acetate, 318.15 K) was 0.0604, the solubility (mole fraction) (in n-propyl acetate, 323.15 K) was 0.0698 and the solubility (mole fraction) (in sec-butanol, 283.15 K) was 0.0224. For the same compound, the solubility (mole fraction) (in sec-butanol, 288.15 K) was 0.0279, the solubility (mole fraction) (in sec-butanol, 293.15 K) was 0.034 and the solubility (mole fraction) (in sec-butanol, 298.15 K) was 0.0413. The solubility (mole fraction) (in sec-butanol, 303.15 K) was 0.0505, the solubility (mole fraction) (in sec-butanol, 308.15 K) was 0.0617 and the solubility (mole fraction) (in sec-butanol, 313.15 K) was 0.0745. The solubility (mole fraction) (in sec-butanol, 318.15 K) was 0.0888 and the solubility (mole fraction) (in sec-butanol, 323.15 K) was 0.107.
